In ChEMBL document CHEMBL1201862, “PubChem BioAssay data set” (2004):
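Cultured in 96-well plates, cells were exposed to test compound for 48 hours across five concentrations. Abbreviation: GI50, concentration required for 50% inhibition of growth.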 The source made the active and inactive calls. Rule as the data show it: active = GI50 up to about 1.1 µM and inactive = higher.

Experiments:
Assay in all cases: NCI anticancer screen, dose series, 48 h
[1] = test system: KM12
[2] = test system: NCI-H23
[3] = test system: 786-0
[4] = test system: UACC-62
[5] = test system: PC-3
[6] = test system: SK-MEL-2
[7] = test system: ACHN
[8] = test system: HCC 2998
[9] = test system: U-251
[10] = test system: OVCAR-3
[11] = test system: SF-268
[12] = test system: SN12C
[13] = test system: UO-31
[14] = test system: SF-295
[15] = test system: HCT-116
[16] = test system: COLO 205
[17] = test system: LOX IMVI
[18] = test system: A498
[19] = test system: DU-145

Row | SMILES | GI50 [1] | GI50 [2] | GI50 [3] | GI50 [4] | GI50 [5] | GI50 [6] | GI50 [7] | GI50 [8] | GI50 [9] | GI50 [10] | GI50 [11] | GI50 [12] | GI50 [13] | GI50 [14] | GI50 [15] | GI50 [16] | GI50 [17] | GI50 [18] | GI50 [19]
1 | CSc1csc(-c2ccc(-c3ccc(-c4cc(SC)cs4)s3)s2)c1 | > 100 µM (inactive) | > 100 µM (inactive) | > 100 µM (inactive) | > 100 µM (inactive) | > 100 µM (inactive) | > 100 µM (inactive) | > 100 µM (inactive) | > 100 µM (inactive) | > 100 µM (inactive) | > 100 µM (inactive) | > 100 µM (inactive) | > 100 µM (inactive) | > 100 µM (inactive) | > 100 µM (inactive) | > 100 µM (inactive) | > 100 µM (inactive) | > 100 µM (inactive) |  | 
2 | CC(C)(CN1CCCCC1)C(=O)/C=C/c1ccc(Cl)c(Cl)c1 | 1.71 µM (inactive) | 1.71 µM (inactive) | 1.38 µM (inactive) | 1.76 µM (inactive) |  | 1.73 µM (inactive) | 1.55 µM (inactive) | 1.74 µM (inactive) | 1.37 µM (inactive) | 1.59 µM (inactive) | 1.8 µM (inactive) | 1.56 µM (inactive) | 1.63 µM (inactive) | 2.45 µM (inactive) | 1.65 µM (inactive) | 1.5 µM (inactive) | 1.37 µM (inactive) | 1.67 µM (inactive) | 
3 | CSc1nc2c(nc(C)c(=O)n2C2OCC(OC(C)=O)C(OC(C)=O)C2OC(C)=O)c(=O)[nH]1 (configuration not stated) | > 100 µM (inactive) | > 100 µM (inactive) | > 100 µM (inactive) | > 100 µM (inactive) |  | > 100 µM (inactive) | > 100 µM (inactive) | > 100 µM (inactive) | > 100 µM (inactive) | > 100 µM (inactive) | > 100 µM (inactive) | > 100 µM (inactive) | > 100 µM (inactive) | > 100 µM (inactive) | > 100 µM (inactive) | > 100 µM (inactive) | > 100 µM (inactive) | > 100 µM (inactive) | 
4 | CC(=O)C(C)C(=O)N1C(=O)N(C)C2(C)N(C)C(=O)NC12C (configuration not stated) | > 100 µM (inactive) | > 100 µM (inactive) | > 100 µM (inactive) | > 100 µM (inactive) |  | > 100 µM (inactive) | > 100 µM (inactive) | > 100 µM (inactive) | > 100 µM (inactive) | > 100 µM (inactive) | > 100 µM (inactive) | > 100 µM (inactive) | > 100 µM (inactive) | > 100 µM (inactive) | > 100 µM (inactive) | > 100 µM (inactive) |  |  | > 100 µM (inactive)
5 | CN(C)[C@@H]1C(O)=C(C(N)=O)C(=O)[C@@]2(O)C(O)=C3C(=O)c4c(O)cccc4C[C@H]3C[C@@H]12 | 2.13 µM (inactive) | 2 µM (inactive) | 2.31 µM (inactive) | 1.72 µM (inactive) |  | 1.83 µM (inactive) | 3.74 µM (inactive) | 1.78 µM (inactive) | 2.17 µM (inactive) | 1.75 µM (inactive) | 1.73 µM (inactive) | 3.44 µM (inactive) | 1.87 µM (inactive) | 1.7 µM (inactive) | 1.77 µM (inactive) | 1.77 µM (inactive) | 1.91 µM (inactive) | 2.2 µM (inactive) | 
6 | NC(=O)CO/N=C1/C(=C2/C(=O)Nc3ccccc32)Nc2ccccc21 | 0.247 µM (active) | 0.811 µM (active) | > 100 µM (inactive) | 5.87 µM (inactive) | > 100 µM (inactive) | 2.4 µM (inactive) | 3.48 µM (inactive) |  | > 100 µM (inactive) | 4.49 µM (inactive) | > 100 µM (inactive) | > 100 µM (inactive) | 1.77 µM (inactive) | > 100 µM (inactive) | 0.755 µM (active) | 1.86 µM (inactive) | 1.04 µM (active) | > 100 µM (inactive) | 1.67 µM (inactive)
